Here are results for one compound from PMC5560554, “Targeting of CDK9 with indirubin 3’-monoxime safely and durably reduces HIV viremia in chronically infected humanized mice” (PLoS ONE, 2017).

Values joined by “and” are separate entries in the source; they are usually repeats but may differ in a detail not shown here. Equal entries are not always repeated.

A short description of series [1]: Pharmacokinetics of IM in NSG mice (single i.p. injection, plasma by HPLC). The format is in vivo. Conditions: for Conc (plasma IM), individual mice: 40 mg/kg. As to the method: Fasting, female NSG mice (n = 16) were injected with 40 mg/kg IM via i.p. Blood samples were obtained pre-dose (30 minutes before compound injection) and at 5, 15, 30, 60, 120, 180, 240 and 300 minutes after injection using a sparse sampling design (n = 2 samples per mouse, n = 4 samples per time point). Separated plasma was further extracted and processed for analysis, and IM concentrations determined using HPLC analysis. In brief, sample processing involved extraction of plasma (30 μL) with 400 μL acetonitrile and 2 μg/mL internal standard ([…]). The sample was briefly vortexed and centrifuged (12 minutes, 6°C), with transfer of 400 μL of supernatant to a clean test tube. The sample was evaporated to dryness under nitrogen, reconstituted in 50 μL of methanol:water (75:25), and 20 μL was injected onto the column. The concentration of primary analyte (IM) and internal standard (IS) d4-estrone were determined using a Shimadzu Nexera X2 liquid chromatography system coupled with a SPD-M30A UV-VIS diode array detector. The liquid chromatography separation was performed on a Prodigy ODS-3V C18 column, 250 × 4.6 mm, 5 μm. The mobile phase consisted of 35% water and 65% Methanol (Optima LC-MS grade) delivered at a flow rate of 0.85 mL/min. Retention times for IM and IS were 13 and 15 minutes, respectively, with detection at 280 nm. The IM peak identity was confirmed using the complete 240–600 nm absorbance spectra. The standard concentration curve was linear over the range of 0.025 μg/mL– 4.0 μg/mL using regression plots of IM to internal standard peak area ratios versus drug concentrations derived with 1/x2 weighting. […] Non-compartmental pharmacokinetic parameters were determined from pooled average data at each time point using Phoenix WinNonlin v6.4 (Certara, St. Louis, MO).
We evaluated the pharmacokinetics of IM in NSG mice following a single i.p. injection of 40 mg/kg, a dose that inhibited plasma HIV RNA levels by 2 log 10 units in our previous study. Data (S1 Table) were plotted on concentration-time curves and pharmacokinetic parameter values determined (Fig 1). […] Thus, IM concentrations above HIV EC50 values are rapidly achieved and maintained for > 3 h following i.p. injection of 40 mg/kg IM.
Fig 1 Pharmacokinetics of IM in mice. NSG mice (n = 16) were i.p. injected with 40 mg/kg IM. Blood samples were obtained pre-dose and at 5, 15, 30, 60, 120, 180, 240 and 300 minutes after injection using a sparse sampling design (n = 2 samples per mouse, n = 4 samples per time point). Separated plasma was further extracted and processed for analysis, and IM concentrations were determined using HPLC analysis.

In series [2] the test system is HIV. Also noted: method as in PMID 16284457. Conditions: macrophages; read-out: EC50 for inhibition of HIV in vitro; cited from earlier work.
Series [3] has as its system HIV. Also noted: method as in PMID 24401082. Conditions: cited from earlier work.

What is called AUC is concentration integrated over time. A low value points to low exposure. One may read the Cmax as the peak of the concentration-time curve. Broadly, the EC50 is the concentration giving half of the maximal effect. Consider `O=C1Nc2ccccc2/C1=C1/Nc2ccccc2/C1=N\O` [IM, Indirubin 3’-monoxime], for which the “Conc (plasma IM), individual mice” value in series [1] (5 min after i.p. 40 mg/kg) was 1056 ng/mL and 1492 ng/mL and 1336 ng/mL and 54 ng/mL; in series [1] (15 min after i.p. 40 mg/kg), 3005 ng/mL and 2975 ng/mL and 3996 ng/mL and 2773 ng/mL; in series [1] (30 min after i.p. 40 mg/kg) it was 4918 ng/mL and 2550 ng/mL and 29 ng/mL and 3217 ng/mL; in series [1] (60 min after i.p. 40 mg/kg), 2983 ng/mL and 2619 ng/mL and 2828 ng/mL and 2005 ng/mL; in series [1] (120 min after i.p. 40 mg/kg) it was 4276 ng/mL and 1171 ng/mL and 1632 ng/mL and 14 ng/mL; in series [1] (180 min after i.p. 40 mg/kg), 380 ng/mL and 1062 ng/mL and 56 ng/mL and 217 ng/mL. Besides, the “Conc (plasma IM), individual mice” value in series [1] (240 min after i.p. 40 mg/kg) was 285 ng/mL and 58 ng/mL and 14 ng/mL and 376 ng/mL; in series [1] (300 min after i.p. 40 mg/kg), 44 ng/mL and 79 ng/mL and 83 ng/mL and 35 ng/mL. Also, the AUC in series [1] (single i.p. 40 mg/kg, plasma) was determined as 370 ± 64 µg·min/mL. Moreover, the “elimination t1/2” value in series [1] (single i.p. 40 mg/kg, plasma) was found to be 42.4 min. Moreover, in series [1] (single i.p. 40 mg/kg, plasma), the “maximum concentration of IM in plasma (Cmax)” value worked out at 3190 ± 270 ng/mL. The compound further yielded a Cmax in series [1] (single i.p. 40 mg/kg, plasma, converted from μg/mL) of 11.5 ± 0.97 µM. Moreover, the EC50 in series [2] was 500 nM. The “inhibition of plasma HIV RNA levels” value in series [3] (40 mg/kg, previous study) was 2 log 10 units. The general toxicity entry in series [3] (NSG mice, daily doses between 2.5 and 40 mg/kg) was “absence of general toxicity”.
